“Also recorded” adds a separate entry of the source.
Columns and labels:
[1] = tested on: Bax, p53 and cleaved-PARP; assay: Expression level of apoptosis associated proteins; assay type: cell-based, human; conditions: HeLa cells, Western blot and qPCR
Procedure: A. Western blotting: After being treated with candidate compound, cells were harvested and lysed. Then, the lysate was isolated by ultracentrifuge and quantified by BCA assay according to the protocol. After being denatured, equivalent protein of each sample was separated by SDS-PAGE gel and wet-transferred onto […] nitrocellulose membrane. After being blocked by PBS containing 5% skim milk, the membrane was incubated with primary antibody at 4° C. overnight and secondary antibody at room temperature for 2 h and then visualized by enhanced chemiluminescence kit (Thermo Fisher, USA), sequentially.
(§1) B. Quantitative PCR assay: HeLa cells were treated with 69, 70 or 97. The expression level of mRNA of target proteins was tested with qPCR kit (Takara).

tubulin [2] = assay: Immunofluorescent analysis of tubulin morphology; assay type: cell-based, human; conditions: SKOV-3 cells, 24 h
Procedure: After treatment with diluent (0.2% DMSO) or tested compounds at indicated concentrations for 24 h, SKOV-3 cells were fixed with methanol, permeabilized with 0.1% Triton X-100 in PBS and blocked by goat serum. Then the cells were incubated with a-tubulin antibody at 4° C. overnight, followed by incubation with Alexa 488 labeled secondary antibody (Jackson ImmunoResearch) at RT for 1 h. After being stained with DAPI, cells were examined and photographed with a Leica SP5 co-focal fluorescence microscope.

A2780 cells = assay: Xenografts tumor growth assay in nude mice; assay type: in vivo, Balb/c nude mice; conditions: A2780 xenograft
Procedure: 6 weeks old female Balb/c nude mice were purchased from Shanghai Slac Laboratory Animal Co. Ltd. (Shanghai, China). 2*10^6 A2780 cells suspended in 0.2 mL PBS per mouse was injected subcutaneously into the nude mice. […] Administration of agents or vehicle, or agents and measurement of tumor volumes with a digital caliper was done once every 2 days. Tumor volumes were calculated as volume=shortest diameter (W)^2*longest diameter (L)*0.52. When the average tumor volumes of vehicle treated group reached 2000 mm^3 in diameter, the mice were sacrificed and the tumors were isolated and weighed. Visceral organs of the mice as well as solid tumors were further analyzed by H&E staining.

tubulin [3] = assay: Immunoblotting analysis of polymerized/depolymerized tubulin; assay type: cell-based, human; conditions: Hela cells, 6 h
Procedure: After being treated with diluent (0.2% DMSO), tested compound, CA-4 or PTX for 6 h, Hela cells were lysed with microtubulestabilizing buffer, containing 100 mM PIPES, pH 6.8, 1 mM MgCl2, 2 mM EGTA, 0.5% NP-40, 2 M glycerol, 5 μM PTX and protease inhibitors cocktail (Roche), and the lysate was centrifuged at 15,000 rpm for 15 min. Supernatant containing depolymerized tubulin was carefully collected, whereas pellet (polymerized tubulin) was further dissolved in SDS-lysis buffer (Beyotime, China). Equal amounts of supernatant and dissolved pellet were subjected to immunoblotting analysis as described above using a tubulin antibody (Proteintech).

cellular apoptosis = assay: Cell apoptosis analysis (Annexin V/PI); assay type: cell-based; conditions: 48 h, Annexin-V/PI flow cytometry
Procedure: Cell apoptosis was detected using FITC Annexin V Apoptosis Detection Kit (BD Biosciences) according to manufacturer's instructions. Briefly, cells were incubated with indicated concentrations of 69, 70 and 97, CA-4 as positive control or diluent (0.2% DMSO) as negative control for 48 h. Then the cells were harvested, washed twice with PBS, and re-suspended in binding buffer. After being stained with Annexin-V and PI for 15 min in the dark place, cells were subjected to flow cytometry (Cytomics FC 500 MPL, Beckman Coulter) analysis. The results were indicated as mean values from three independent determinations.

MDA-MB-231 cells = assay: Colony formation assay; assay type: cell-based, human; conditions: 48 h treatment, 7-10 days growth
Procedure: 1000 MDA-MB-231 cells per well were seeded into 6-well plate at a single cell density and were cultured at 37° C. for 48 h. After being treated with indicated concentrations of 69, 70 and 97, CA-4 as positive control, or diluent (0.2% DMSO) as negative control for 48 h, the agents containing medium was replaced by fresh medium to allow cell growth for additional 7-10 days. Then the cells were fixed with methanol and stained with gentian violet for 30 min. The number of colonies which consisted of more than 50 cells were counted. The results were indicated as mean values from three independent determinations.

[4] = tested on: p-histone H3, cyclin B1 and BuBR1; assay: Cell cycle associated proteins assay; assay type: cell-based, human; conditions: HeLa cells, 24 h, Western blot and qPCR
Procedure: A. HeLa cells were treated with 69, 70, 97 or DMSO for 24 h. After being harvested, the cells were lysed, and the concentrations of total protein were determined by BCA protein assay kit (Beyotime, China). […] The membrane was blocked with 5% BSA in TBST for 1.5 h, then incubated overnight with specific primary antibodies (Proteintech) at 4° C. After being washed three times by TBST, the membrane was incubated with specific secondary antibodies (Abnova, Taipei, China) at room temperature for 2 h. Finally, chemiluminescent reagents (Millipore) were employed to detect the protein bands.
as §1

KM mice = assay: Acute toxicity assay; assay type: in vivo
Procedure: KM mice were housed individually in a specific pathogen free facility. Groups of mice (n=10 per group, half male and half female) were injected intraperitoneally once with various dosages of 69 (95, 70, 50, 35, 25 mg/kg), 70 (500, 425, 350, 275, 200 mg/kg), 97 (275, 200, 150, 125 and 100 mg/kg) or vehicle (8.3% cremohorp EL and 8.3% alcohol in PBS) as negative control, respectively. 69, 70 and 97 was dissolved in cremeohore EL and alcohol mixture (1:1, v/v) and further diluted with PBS (1:5, v/v). The death of mice were monitored daily and recorded up to 14 days after injection.

COc1ccc([C@H]2[C@@H](C)C(=O)N2c2cc(OC)c(OC)c(OC)c2)cc1O [Compound 70, (3R,4R)-4-(3-hydroxy-4-methoxyphenyl)-3-methyl-1-(3,4,5-trimethoxyphenyl)azetidin-2-one]
expression of Bax, p53 and cleaved-PARP [1]: significantly promote the expression of the proapoptotic protein Bax, the tumor suppressor gene p53, and the cleaved DNA repair enzyme; also recorded: significantly induce the expression of Bax, p53 and cleaved-PARP
tubulin assembly (immunofluorescence) (tubulin [2]): significantly inhibit tubulin aggregation; also recorded: strongly inhibit tubulin assembly in cancer cells
tumor growth in vivo (A2780 cells; i.p. once every 2 days, 69 7.5 mg/kg, 70 12.5 mg/kg, 97 4 or 8 mg/kg): significantly inhibit tumor growth in vivo; also recorded: anti-tumor activities in vivo
H&E staining of liver, kidney and spleen (A2780 cells; treated groups): no abnormal areas are observed in tissue staining of liver, kidney and spleen; also recorded: no detectable abnormalities were observed in liver, kidney and spleen
H&E staining of tumor sections (necrosis) (A2780 cells; treated groups): cause tumor tissue to produce necrotic areas; also recorded: extensive areas of necrosis or cell death
polymerized tubulin (immunoblotting) (tubulin [3]): significantly inhibit tubulin aggregation; also recorded: dramatically reduction of polymerized tubulin
cellular apoptosis (cellular apoptosis): significantly promote apoptosis; also recorded: significantly induce cellular apoptosis
colony formation (MDA-MB-231 cells): significantly inhibit the formation of colonies of cancer cells
expression of p-histone H3, cyclin B1 and BuBR1 [4]: significantly promote the expression of phosphorylated histone H3, cyclin B1, and mitotic checkpoint protein BuBR1
No. of dead mice 5-14 days (KM mice; 200 mg/kg i.p. once): 0
No. of dead mice 1 day (KM mice; 200 mg/kg i.p. once): 0
No. of dead mice 2 days (KM mice; 200 mg/kg i.p. once): 0
No. of dead mice 3 days (KM mice; 200 mg/kg i.p. once): 0
No. of dead mice 4 days (KM mice; 200 mg/kg i.p. once): 0
No. of dead mice Total death (KM mice; 200 mg/kg i.p. once): 0
Survival (%) on day 14 (KM mice; 200 mg/kg i.p. once): 100%
No. of dead mice 5-14 days (KM mice; 275 mg/kg i.p. once): 1
No. of dead mice 1 day (KM mice; 275 mg/kg i.p. once): 0
No. of dead mice 2 days (KM mice; 275 mg/kg i.p. once): 0
No. of dead mice 3 days (KM mice; 275 mg/kg i.p. once): 0
No. of dead mice 4 days (KM mice; 275 mg/kg i.p. once): 1
No. of dead mice Total death (KM mice; 275 mg/kg i.p. once): 2
Survival (%) on day 14 (KM mice; 275 mg/kg i.p. once): 80%
No. of dead mice 5-14 days (KM mice; 350 mg/kg i.p. once): 0
No. of dead mice 1 day (KM mice; 350 mg/kg i.p. once): 0
No. of dead mice 2 days (KM mice; 350 mg/kg i.p. once): 0
No. of dead mice 3 days (KM mice; 350 mg/kg i.p. once): 1
No. of dead mice 4 days (KM mice; 350 mg/kg i.p. once): 0
No. of dead mice Total death (KM mice; 350 mg/kg i.p. once): 1
Survival (%) on day 14 (KM mice; 350 mg/kg i.p. once): 90%
No. of dead mice 5-14 days (KM mice; 425 mg/kg i.p. once): 0
No. of dead mice 1 day (KM mice; 425 mg/kg i.p. once): 0
No. of dead mice 2 days (KM mice; 425 mg/kg i.p. once): 0
No. of dead mice 3 days (KM mice; 425 mg/kg i.p. once): 3
No. of dead mice 4 days (KM mice; 425 mg/kg i.p. once): 0
No. of dead mice Total death (KM mice; 425 mg/kg i.p. once): 3
Survival (%) on day 14 (KM mice; 425 mg/kg i.p. once): 70%
No. of dead mice 5-14 days (KM mice; 500 mg/kg i.p. once): 0
No. of dead mice 1 day (KM mice; 500 mg/kg i.p. once): 0
No. of dead mice 2 days (KM mice; 500 mg/kg i.p. once): 0
No. of dead mice 3 days (KM mice; 500 mg/kg i.p. once): 4
No. of dead mice 4 days (KM mice; 500 mg/kg i.p. once): 0
No. of dead mice Total death (KM mice; 500 mg/kg i.p. once): 4
Survival (%) on day 14 (KM mice; 500 mg/kg i.p. once): 60%

Reference: patent US20220251039A1, “Diaryl-B-Lactam Compound and Preparation Method and Pharmaceutical Use Thereof” (Fudan University, priority 2016, published 2022)
